# Experimental data as given in US12138320B2, “Composition and methods for tumor imaging and treatment” (The University of Chicago, priority 2020, dated 2024).
# How the values were obtained:
# NCEH1 [1] = molecular target: T1, NCEH1 (Homo sapiens, UniProt Q6PIU2); test: Gel-based competitive ABPP (FP-Rho) of cancer cells treated in situ (live cells); type: cell-based; details: live cells
# T1 construct: serine hydrolase activity in membrane proteome fractions of MDA-MB231 breast cancer cells treated with the indicated concentrations; endogenous in cells; host or cells: PC3 prostate cancer cells; MDA-MB231 breast cancer cells
# T1 sequence (Q6PIU2 1-408): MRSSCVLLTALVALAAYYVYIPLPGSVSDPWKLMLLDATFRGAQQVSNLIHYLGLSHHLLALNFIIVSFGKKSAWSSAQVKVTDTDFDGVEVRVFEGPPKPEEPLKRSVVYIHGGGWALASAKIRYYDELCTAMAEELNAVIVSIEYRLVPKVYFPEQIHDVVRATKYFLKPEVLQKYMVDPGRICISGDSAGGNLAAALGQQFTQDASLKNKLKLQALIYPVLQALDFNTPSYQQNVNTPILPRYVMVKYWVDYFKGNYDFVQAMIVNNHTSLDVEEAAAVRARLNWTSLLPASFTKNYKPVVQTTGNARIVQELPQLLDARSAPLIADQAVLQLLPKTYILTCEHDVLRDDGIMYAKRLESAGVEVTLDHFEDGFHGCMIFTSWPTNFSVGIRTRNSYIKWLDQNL
# Experimental: Proteome Preparation: Human PC3 and MDA-MB231 cells were grown in Roswell Park Memorial Institute (RPMI) medium and Dulbecco's Modified Eagle Medium (DMEM), respectively, supplemented with 10% fetal bovine serum (FBS) and 2 mM L-glutamine, and cultured in a humidified 5% CO2 incubator at 37° C. Cells were washed twice with phosphate buffered saline (PBS, pH 7.5), collected by scraping, resuspended in 0.2 ml PBS, sonicated, and fractionated via centrifugation (100,000×g, 45 min) into a pellet (containing membrane proteins) and supernatant (containing soluble proteins). For murine proteomes, mouse tissues were Dounce-homogenized on ice in cold PBS, followed by a low-speed spin (1,400×g, 5 min) to remove debris. After sonication, the membrane and soluble proteomes were fractionated as described above. All sample pellets were washed and resuspended in PBS via sonication. Protein concentrations were determined using a Bradford protein assay kit (Bio-Rad, Hercules, California, United States of America)). Samples were stored at −80° C. until use.
# Cellular JW199 Treatments: JW199 was dissolved in dimethyl sulfoxide (DMSO) vehicle, which was diluted into media or buffer before addition to cells or proteomes, respectively. For in vitro proteome experiments, the final DMSO concentration was 4%. For live cell (in situ) treatments, 2×10^6 cells were seeded in 6 cm dishes (100% confluency) 24 hours prior to JW199 treatment in serum-free media. At the end of the experiment, cells were washed and collected, as described above, for gel-based activity profiling.
# Gel-based Activity Profiling: Cell lysates were treated with 1 μM fluorophosphonate-rhodamine (FP-rho) for 30 min at room temperature (50 μL total reaction volume). Reactions were quenched with one volume of standard 4× sodium dodecyl sulfate/polyacrylamide gel electrophoresis (SDS/PAGE) reducing sample buffer, resolved on 10% acrylamide SDS/PAGE gels, and visualized in-gel with a fluorescence scanner sold under the tradename CHEMIDOC™ MP (Bio-Rad, Hercules, California, United States of America). Densitometric quantification of band intensities were used to calculate the percent inhibition via JW199. 50% inhibitory concentration (IC50) values were determined from dose-response curves constructed in GraphPad Prism software from three independent replicates for each inhibitor concentration. For competitive ABPP with JW576, tumor lysates were treated with 1 μM JW576 for 30 min at 37° C. (50 μL total reaction volume). Competitive ABPP was then conducted as described above. NCEH1 activity was calculated by densitometric quantification (ImageJ software; National Institutes of Health (NIH), Bethesda, Maryland, United States of America) of JW576-labeled band intensity (BODIPY fluorescence) from three independent replicates.
# NCEH1 [2] = molecular target: T2, NCEH1 (Mus musculus, UniProt Q8BLF1); test: In vivo microPET/CT imaging and ex vivo biodistribution in nude mice
# T2 construct: For murine proteomes, mouse tissues were Dounce-homogenized on ice in cold PBS; from tissue; host or cells: athymic nude mice: heart, kidney, lung, liver, brain, spleen and other organs
# T2 sequence (Q8BLF1 1-408): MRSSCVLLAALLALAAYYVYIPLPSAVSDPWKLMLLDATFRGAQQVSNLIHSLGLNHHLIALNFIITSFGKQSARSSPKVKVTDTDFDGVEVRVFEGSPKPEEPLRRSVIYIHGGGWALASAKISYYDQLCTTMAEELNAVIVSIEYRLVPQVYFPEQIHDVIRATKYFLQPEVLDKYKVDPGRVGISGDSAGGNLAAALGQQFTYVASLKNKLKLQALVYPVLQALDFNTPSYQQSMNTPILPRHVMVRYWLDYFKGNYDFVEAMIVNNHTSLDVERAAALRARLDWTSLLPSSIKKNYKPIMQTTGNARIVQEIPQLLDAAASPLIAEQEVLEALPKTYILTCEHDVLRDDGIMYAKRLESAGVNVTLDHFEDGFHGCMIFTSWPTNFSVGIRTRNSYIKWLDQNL
# Experimental: In vivo microPET/CT imaging: All imaging was performed by the Integrated Small Animal Imaging Research Resource (iSAIRR) at the University of Chicago (Chicago, Illinois, United States of America) on a β-Cube and X-Cube (Molecubes NV, Ghent, Belgium). […] MicroCT images were acquired using the general purpose protocol, with energy of 50 KeV and a tube current of 100 μA. Respiration rate and body temperature of the animal were constantly monitored during the entire scanning period with the p-Cube and X-Cube onboard monitoring system. A 1 hr dynamic PET acquisition was started 2 hours after [^18F]JW199 injection. Dynamic reconstruction was performed for 6 frames of 10 minutes each using a three-dimensional (3D) OSEM algorithm with 400 μm isometric voxel size. For competition studies, mice were pretreated with either 80 mg/kg JW480 or vehicle (polyethylene glycol 300 (PEG300)) via oral gavage, followed 4 hours later by dosing with [^18F]JW199 and imaging as described. For the MDA-MB231 study, [^18F]JW199 injection was followed immediately by dynamic PET acquisition (90 min) and microCT scanning as detailed above. Dynamic PET image reconstruction included 9 frames of 10 minutes each.
# Dynamic reconstruction was performed using a three-dimensional OSEM algorithm with 400 μm isometric voxel size. All image analysis was performed with software sold under the tradename VivoQuant™ (inviCRO, LLC, Boston, Massachusetts, United States of America). 3D regions of interest (ROIs) were drawn and standardized uptake values (SUVs) and percent injected dose per cubic centimeter of tissue (% ID/cc) were calculated for each ROI and time point. % ID/cc was calculated as a ratio of tissue radioactivity concentration (mCi/g) at time of scan to total injected activity (millicurie (mCi)) at time of scan.
# Ex vivo Biodistribution: All animals were sacrificed at 3 hours post [^18F]JW199 injection and organs and tumors were immediately harvested. All tissues were weighed, and radioactivity was counted using a Cobra II […] (PerkinElmer, Waltham, Massachusetts, United States of America) calibrated for [^18F] energy. The concentration of radioactivity in tumor, organs, and tissues was determined as percentage of injected dose per cubic centimeter of tissue (% ID/cc).
smiles,measurement,setting,value
"CC(C)c1ccccc1OC(=O)NCCc1ccc(OCC[18F])cc1 [[^18F]JW199, fluorine-18-labeled 2-isopropylphenyl-(4-(2-fluoroethoxy)phenethyl)carbamate]",concentrations at which active NCEH1 is labeled in live cells,NCEH1 [1],nM concentrations
same,PET signal kinetics in target organs,NCEH1 [2]; during the entire imaging procedure,quickly reached and maintained constant levels
same,PET signal in the brain,NCEH1 [2]; i.v.,low PET signal
same,CNS penetration,"NCEH1 [2]; i.v., inferred from brain PET signal",low CNS penetration
same,"uptake in adipose depots, liver and bone","NCEH1 [2]; i.v., tissues with low Nceh1 mRNA levels",relatively low uptake
same,"PET signal accumulation in kidney, heart and lung","NCEH1 [2]; i.v., ~100 μCi, tissues with relatively high Nceh1 expression",Significant signal accumulation
same,accumulation in mouse tissues,"NCEH1 [2]; mouse, in vivo","rapid, NCEH1-dependent accumulation"
